This test has as its target T1, Prostaglandin G/H synthase 1 (Ovis aries, UniProt P05979).
T1 sequence (P05979 whole entry): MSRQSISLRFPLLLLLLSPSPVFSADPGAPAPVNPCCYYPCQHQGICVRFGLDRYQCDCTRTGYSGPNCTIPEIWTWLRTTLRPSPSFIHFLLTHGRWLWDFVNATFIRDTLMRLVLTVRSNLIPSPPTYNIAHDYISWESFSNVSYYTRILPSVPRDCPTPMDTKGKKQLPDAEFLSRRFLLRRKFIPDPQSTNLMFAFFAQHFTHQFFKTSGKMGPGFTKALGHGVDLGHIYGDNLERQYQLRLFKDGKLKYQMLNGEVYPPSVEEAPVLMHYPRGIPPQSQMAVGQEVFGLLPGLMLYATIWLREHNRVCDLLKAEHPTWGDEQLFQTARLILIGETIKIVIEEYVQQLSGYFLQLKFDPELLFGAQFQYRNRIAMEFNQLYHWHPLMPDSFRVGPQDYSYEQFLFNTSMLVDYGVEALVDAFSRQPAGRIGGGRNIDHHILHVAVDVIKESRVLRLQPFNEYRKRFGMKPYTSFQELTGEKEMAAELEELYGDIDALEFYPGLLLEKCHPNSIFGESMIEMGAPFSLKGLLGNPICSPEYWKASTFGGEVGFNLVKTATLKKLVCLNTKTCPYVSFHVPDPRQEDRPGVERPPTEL
The test is described as follows: Inhibition of ovine COX1.

In the case of `COc1cc(/C=C/C(=O)c2c(O)cc(C)c(Cl)c2C)cc(OC)c1OC`, half-maximal inhibition (IC50) was put at 87.5 µM.

For orientation: IC50 means the point on the concentration scale where inhibition reaches its midpoint.

For the origin of these results see BindingDB's records for doi:10.1016/j.ejmech.2013.04.056 (Jamia Hamdard (Hamdard University), 2013).
